Results: patent US11104619B2, “Mixture for treating fertilizers containing urea” (EuroChem Agro GmbH, priority 2015, dated 2021)
Like-named read-outs stand apart in the source and are kept apart here.

Legend:
nitrification [1] = assay: Soil incubation trial: nitrate formed from applied urea N; conditions: Filder loam, 20° C., label gives UI/NI fraction of recommended rate
Protocol: % of the urea applied (13 mg N)

nitrification [2] = assay: Soil incubation trial: cumulative laughing gas (N2O-N) emission; conditions: 77 mg N applied; for N2O—N cumulative, % of appl.: cumulative over 28 days
urease [3] = assay: Screening trials: hydrolysis of urea in soil; conditions: first few days of application; with DMPSA present
nitrification [4] = assay: Soil incubation trial: recovery of applied urea N as ammonium; conditions: for percentage recovery in the form of ammonium, % of applied urea (13 mg N): 28 days after application, Filder loam pH 6.8, 20° C., 200 kg urea N/ha, label gives UI/NI fraction of recommended rate (0.6 g NBPT, 3.6 g DMPSA per kg urea)
Protocol: % of applied urea (13 mg N)
A determination was carried out 28 days after application of the urea, with the percentage recovery in the form of ammonium being reported.

urease [5] = conditions: for Ammonia emission, % of the urea applied (77 mg N): Filder loam, 20° C., label gives UI/NI fraction of recommended rate
Protocol: Screening trials were conducted to evaluate the effect of DMPSA and NBPT in the inhibition of urease and inhibition of nitrification, and to find suitable quantities for use. Serving for this purpose was a two-factorial trial design including an unfertilized control sample. For the urease inhibitor NBPT and for the nitrification inhibitor DMPSA, in each case 0%, 33%, 66% and 100% of the application rates recommended for the individual compounds when used alone were used (in this example, 0.6 g of NBPT per kg of urea and, respectively, 3.6 g of DMPSA per kg of urea), giving 16 trials (0%-0% to 100%-100%), in addition to the unfertilized control sample.
Urea fertilizer was delivered in an amount of 200 kg nitrogen per ha, corresponding to 0.51 mg of urea nitrogen per g of soil. The soil used was Filder loam with a pH of 6.8. The incubation trials were carried out at 20° C. For the investigation of trace gases, air supply was passed first through a gas sample, then through a 250 ml capacity glass bottle containing 150 g of soil, subsequently through a gas sample for the outgoing air and through an acid trap, in order, for example, to determine amounts of ammonia. For the measurement of nitrogen, about 20 g of soil were incubated; for the measurement of urea, about 5 g of soil.

CCCCNP(N)(N)=S [NBPT, N-(n-butyl)thiophosphoric triamide]
Nitrate, % of the urea applied (13 mg N) (nitrification [1]; 5 days after application, listed as UI 1 NI 0): 11% | Nitrate, % of the urea applied (13 mg N) (nitrification [1]; 5 days after application, listed as UI ⅓ NI 0): 10% | Nitrate, % of the urea applied (13 mg N) (nitrification [1]; 5 days after application, listed as UI ⅔ NI 0): 11% | Nitrate, % of the urea applied (13 mg N) (nitrification [1]; 28 days after application, listed as UI 1 NI 0): 52% | Nitrate, % of the urea applied (13 mg N) (nitrification [1]; 28 days after application, listed as UI ⅓ NI 0): 58% | Nitrate, % of the urea applied (13 mg N) (nitrification [1]; 28 days after application, listed as UI ⅔ NI 0): 64% | N2O—N cumulative (nitrification [2]; 0 days after appl., 150 g soil): 0 μg N2O—N Bottle^1 | N2O—N cumulative (nitrification [2]; 0.5 days after appl.): 0 μg N2O—N Bottle^1 | N2O—N cumulative (nitrification [2]; 1 day after appl., listed as UI-1_NI-0): 2 μg N2O—N Bottle^1 | N2O—N cumulative (nitrification [2]; 1 day after appl., listed as UI-2_NI-0): 1 μg N2O—N Bottle^1 | N2O—N cumulative (nitrification [2]; 1 day after appl., listed as UI-3_NI-0): 2 μg N2O—N Bottle^1 | N2O—N cumulative (nitrification [2]; 2 days after appl., listed as UI-1_NI-0): 3 μg N2O—N Bottle^1 | N2O—N cumulative (nitrification [2]; 2 days after appl., listed as UI-2_NI-0): 2 μg N2O—N Bottle^1 | N2O—N cumulative (nitrification [2]; 2 days after appl., listed as UI-3_NI-0): 7 μg N2O—N Bottle^1 | N2O—N cumulative (nitrification [2]; 3 days after appl., listed as UI-1_NI-0): 4 μg N2O—N Bottle^1 | N2O—N cumulative (nitrification [2]; 3 days after appl., listed as UI-2_NI-0): 3 μg N2O—N Bottle^1 | N2O—N cumulative (nitrification [2]; 3 days after appl., listed as UI-3_NI-0): 10 μg N2O—N Bottle^1 | N2O—N cumulative (nitrification [2]; 4 days after appl., listed as UI-1_NI-0): 5 μg N2O—N Bottle^1 | N2O—N cumulative (nitrification [2]; 4 days after appl., listed as UI-2_NI-0): 3 μg N2O—N Bottle^1 | N2O—N cumulative (nitrification [2]; 4 days after appl., listed as UI-3_NI-0): 11 μg N2O—N Bottle^1 | N2O—N cumulative (nitrification [2]; 5 days after appl., listed as UI-1_NI-0): 7 μg N2O—N Bottle^1 | N2O—N cumulative (nitrification [2]; 5 days after appl., listed as UI-2_NI-0): 4 μg N2O—N Bottle^1 | N2O—N cumulative (nitrification [2]; 5 days after appl., listed as UI-3_NI-0): 12 μg N2O—N Bottle^1 | N2O—N cumulative (nitrification [2]; 6 days after appl., listed as UI-1_NI-0): 16 μg N2O—N Bottle^1 | N2O—N cumulative (nitrification [2]; 6 days after appl., listed as UI-2_NI-0): 8 μg N2O—N Bottle^1 | N2O—N cumulative (nitrification [2]; 6 days after appl., listed as UI-3_NI-0): 13 μg N2O—N Bottle^1 | N2O—N cumulative (nitrification [2]; 8 days after appl., listed as UI-1_NI-0): 32 μg N2O—N Bottle^1 | N2O—N cumulative (nitrification [2]; 8 days after appl., listed as UI-2_NI-0): 16 μg N2O—N Bottle^1 | N2O—N cumulative (nitrification [2]; 8 days after appl., listed as UI-3_NI-0): 20 μg N2O—N Bottle^1 | N2O—N cumulative (nitrification [2]; 10 days after appl., listed as UI-1_NI-0): 48 μg N2O—N Bottle^1 | N2O—N cumulative (nitrification [2]; 10 days after appl., listed as UI-2_NI-0): 36 μg N2O—N Bottle^1 | N2O—N cumulative (nitrification [2]; 10 days after appl., listed as UI-3_NI-0): 31 μg N2O—N Bottle^1 | N2O—N cumulative (nitrification [2]; 12 days after appl., listed as UI-1_NI-0): 75 μg N2O—N Bottle^1 | N2O—N cumulative (nitrification [2]; 12 days after appl., listed as UI-2_NI-0): 67 μg N2O—N Bottle^1 | N2O—N cumulative (nitrification [2]; 12 days after appl., listed as UI-3_NI-0): 52 μg N2O—N Bottle^1 | N2O—N cumulative (nitrification [2]; 14 days after appl., listed as UI-1_NI-0): 122 μg N2O—N Bottle^1 | N2O—N cumulative (nitrification [2]; 14 days after appl., listed as UI-2_NI-0): 125 μg N2O—N Bottle^1 | N2O—N cumulative (nitrification [2]; 14 days after appl., listed as UI-3_NI-0): 90 μg N2O—N Bottle^1 | N2O—N cumulative (nitrification [2]; 17 days after appl., listed as UI-1_NI-0): 144 μg N2O—N Bottle^1 | N2O—N cumulative (nitrification [2]; 17 days after appl., listed as UI-2_NI-0): 145 μg N2O—N Bottle^1 | N2O—N cumulative (nitrification [2]; 17 days after appl., listed as UI-3_NI-0): 99 μg N2O—N Bottle^1 | N2O—N cumulative (nitrification [2]; 18 days after appl., listed as UI-1_NI-0): 179 μg N2O—N Bottle^1 | N2O—N cumulative (nitrification [2]; 18 days after appl., listed as UI-2_NI-0): 190 μg N2O—N Bottle^1 | N2O—N cumulative (nitrification [2]; 18 days after appl., listed as UI-3_NI-0): 125 μg N2O—N Bottle^1 | N2O—N cumulative (nitrification [2]; 20 days after appl., listed as UI-1_NI-0): 203 μg N2O—N Bottle^1 | N2O—N cumulative (nitrification [2]; 20 days after appl., listed as UI-2_NI-0): 215 μg N2O—N Bottle^1 | N2O—N cumulative (nitrification [2]; 20 days after appl., listed as UI-3_NI-0): 141 μg N2O—N Bottle^1 | N2O—N cumulative (nitrification [2]; 22 days after appl., listed as UI-1_NI-0): 238 μg N2O—N Bottle^1 | N2O—N cumulative (nitrification [2]; 22 days after appl., listed as UI-2_NI-0): 249 μg N2O—N Bottle^1 | N2O—N cumulative (nitrification [2]; 22 days after appl., listed as UI-3_NI-0): 156 μg N2O—N Bottle^1 | N2O—N cumulative (nitrification [2]; 24 days after appl., listed as UI-1_NI-0): 343 μg N2O—N Bottle^1 | N2O—N cumulative (nitrification [2]; 24 days after appl., listed as UI-2_NI-0): 312 μg N2O—N Bottle^1 | N2O—N cumulative (nitrification [2]; 24 days after appl., listed as UI-3_NI-0): 174 μg N2O—N Bottle^1 | N2O—N cumulative (nitrification [2]; 28 days after appl., listed as UI-1_NI-0): 497 μg N2O—N Bottle^1 | N2O—N cumulative (nitrification [2]; 28 days after appl., listed as UI-2_NI-0): 397 μg N2O—N Bottle^1 | N2O—N cumulative (nitrification [2]; 28 days after appl., listed as UI-3_NI-0): 194 μg N2O—N Bottle^1 | N2O—N cumulative, % of appl. (nitrification [2]; listed as UI-1_NI-0): 0.65 % of appl. | N2O—N cumulative, % of appl. (nitrification [2]; listed as UI-2_NI-0): 0.52 % of appl. | N2O—N cumulative, % of appl. (nitrification [2]; listed as UI-3_NI-0): 0.25 % of appl. | inhibition of the hydrolysis of urea (urease [3]): sufficiently inhibits the hydrolysis of urea | percentage recovery in the form of ammonium, % of applied urea (13 mg N) (nitrification [4]; listed as UI 1 NI 0): 28% | percentage recovery in the form of ammonium, % of applied urea (13 mg N) (nitrification [4]; listed as UI ⅓ NI 0): 9% | percentage recovery in the form of ammonium, % of applied urea (13 mg N) (nitrification [4]; listed as UI ⅔ NI 0): 21% | supplementary influence on ammonium recovery (nitrification [4]; after 28 days): no supplementary influence | reduction in ammonia emissions (urease [5]; 66% NBPT, especially 9 days after application): notable and almost complete reduction in ammonia emissions | Ammonia emission, % of the urea applied (77 mg N) (urease [5]; 4 days after application, listed as UI 1 NI 0): 0.0% | Ammonia emission, % of the urea applied (77 mg N) (urease [5]; 4 days after application, listed as UI ⅓ NI 0): 0.3% | Ammonia emission, % of the urea applied (77 mg N) (urease [5]; 4 days after application, listed as UI ⅔ NI 0): 0.1% | Ammonia emission, % of the urea applied (77 mg N) (urease [5]; 9 days after application, listed as UI 1 NI 0): 0.0% | Ammonia emission, % of the urea applied (77 mg N) (urease [5]; 9 days after application, listed as UI ⅓ NI 0): 1.1% | Ammonia emission, % of the urea applied (77 mg N) (urease [5]; 9 days after application, listed as UI ⅔ NI 0): 0.2% | effect on the increase in ammonia emission caused by the nitrification inhibitor (urease [5]; addition of NBPT): prevent the increase in ammonia emission
